Measurements as given in patent publication US20080176826A1, “Pyridine Compounds For Combating Arthropod Pests and Nematodes” (priority 2005, published 2008).

Tests used:
[1] = tested on: Green peach aphid (Myzus persicae), mixed life stages; test: Green peach aphid foliar dip test, mortality; assay type: in vivo; conditions: 120 h, infested bell pepper leaves dipped 3 seconds, determined after 5 days, read-out: mortality of green peach aphid in comparison with untreated controls
Protocol: (§1) The active compounds were formulated in a mixture of 50 vol.-% acetone: 50 vol.-% water. A nonionic surfactant (Kinetic®) was included in the solution at a volume of 0.01% v/v.
(§2) In the following tests, the formulated solutions of the active compounds were diluted to an active ingredient concentration of 300 ppm and the diluted solutions were applied in the below mentioned tests.
Bell pepper plants at the first true-leaf stage were infested prior to treatment by placing heavily infested leaves from the main aphid colony on top of the treatment plants. The aphids were allowed to transfer overnight to accomplish an infestation of 30-40 aphids per plant and the host leaves were removed. The infested leaves of the test plants were then dipped and agitated in the test solution for 3 seconds and allowed to dry in a fume hood. Test plants were maintained under fluorescent lighting in a 24-hr photoperiod at 25° C. and 20-40% relative humidity. Aphid mortality on the treated plants, relative to mortality on untreated check plants, was determined after 5 days. Test compound A provided 85% mortality while test compounds B and C each provided 100% mortality of green peach aphid (Myzus persicae, mixed life stages) in comparison with untreated controls, when applied at 300 ppm. Test Compounds D, E, F, G and H each provided >85% mortality of green peach aphid (Myzus persicae, mixed life stages) in comparison with untreated controls, when applied at 300 ppm.

[2] = tested on: Cotton aphid (Aphis gossypii), mixed life stages; test: Cotton aphid foliar dip test, mortality; assay type: in vivo; conditions: 120 h, infested cotton cotyledons dipped 3 seconds, determined after 5 days, read-out: mortality of cotton aphid in comparison with untreated controls
Protocol: as §1, §2
Cotton plants at the cotyledon stage were infested prior to treatment by placing a heavily infested leaf from the main aphid colony on top of each cotyledon. The aphids were allowed to transfer overnight and the host leaf was removed. The infested cotyledons were then dipped and agitated in the test solution for 3 seconds and allowed to dry in a fume hood. Test plants were maintained under fluorescent lighting in a 24-hr photoperiod at 25° C. and 20-40% relative humidity. Aphid mortality on the treated plants, relative to mortality on untreated check plants, was determined after 5 days. In this test, test compounds B, C and F at 300 ppm provided 100%, and 86-99% mortality, respectively, of cotton aphid (Aphis gossypii, mixed life stages) in comparison with untreated controls. Test compound A at 300 ppm provided 75-85% mortality, respectively, of cotton aphid (Aphis gossypii, mixed life stages) in comparison with untreated controls.

Structure (SMILES) | mortality at 300 ppm [1] | mortality at 300 ppm [2]
CC(Oc1ccc(Cl)nc1)C1CCCN1OC(=O)c1ccccc1 (racemic) [Compound E, Benzoic acid 2-[1-(6-chloropyridin-3-yloxy)-ethyl]-pyrrolidin-1-yl ester] | > 85% | 
Clc1cncc(OC[C@H]2CCCN2)c1 [Compound A, R-3-Chloro-5-(pyrrolidin-2-ylmethyloxy)-pyridine] | 85% | 75 to 85%
CC(C)(C)C(=O)ON1CCCC1COc1cncc(Cl)c1 (stereo not drawn) [Compound B, 2,2-Dimethyl-propionic acid 2-(5-chloropyridin-3-yloxymethyl)pyrrolidin-1-yl ester] | 100% | 100%
CC(Oc1ccc(Cl)nc1)C1CCCN1 (stereo not drawn) [Compound F, 2-Chloro-5-(1-pyrrolidin-2-ylethoxy)-pyridine] | > 85% | 86 to 99%
CC(Oc1cncc(Cl)c1)C1CCCN1 (stereo not drawn) [Compound G, 3-Chloro-5-(1-pyrrolidin-2-ylethoxy)-pyridine] | > 85% | 
C[C@@H](Oc1cncc(Cl)c1)C1CCN1 (stereo partly drawn) [Compound H, 2S-3-(1-Azetidin-2-yl-ethoxy)-5-chloro-pyridine] | > 85% | 
